Experimental data as given in patent publication US11261211B2, “19-NOR neuroactive steroids and methods of use thereof” (Sage Therapeutics, Inc., priority 2013, dated 2022).

What was measured:
α1β2γ2 GABAA receptor = α1β2γ2 GABAA receptor (Homo sapiens (Human), UniProt P14867+P47870); assay: Patch clamp electrophysiology of recombinant α1β2γ2 GABAA receptors in LTK cells; assay type: cell-based; settings: for activity at 10 µM / Emax: LTK; for activity at 10 µM / α1β2γ2 GABA Qpatch in Ltk (Efficacy at 10 μm): 10 μM compound, Qpatch, Ltk cells, GABA EC20 2 μM; for activity at 10 µM: read-out: α1β2γ2 GABA Qpatch in Ltk (Efficacy at 10 μm); for Emax / EC50: potentiation of GABA EC20 (2 μM) current; for Emax: read-out: GABAa alpha1 (α1β2γ2) Emax (%); for EC50: read-out: GABAa alpha1 (α1β2γ2)EC50
In short: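 Whole-cell voltage clamp at −80 mV, room temperature, in LTK cells stably expressing α1β2γ2 or CHO cells transiently expressing α4β3δ, manual or QPatch. Test article (0.01–10 μM, increasing, 30 s preincubation) then 2 μM GABA (EC20) for 2 s; potentiation = peak current with compound relative to GABA alone ×100.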

α4β3δ GABAA receptor = α4β3δ GABAA receptor (Homo sapiens (Human), UniProt P28472+P48169); assay: Patch clamp electrophysiology of recombinant α4β3δ GABAA receptors in CHO cells; assay type: cell-based; settings: 10 μM compound, GABA EC20 2 μM; for activity at 10 µM: manual patch, read-out: α4β3δ GABA Manual Patch in CHO (Efficacy at 10 μM)
Experimental: Cellular electrophysiology is used to measure the pharmacological properties of our GABAA receptor modulators in heterologous cell systems. Each compound is tested for its ability to affect GABA mediated currents at a submaximal agonist dose (GABA EC20=2 μM). LTK cells are stably transfected with the α1β2γ2 subunits of the GABA receptor and CHO cells are transiently transfected with the α4β3δ subunits via the Lipofecatamine method. Cells were passaged at a confluence of about 50-80% and then seeded onto 35 mm sterile culture dishes containing 2 ml culture complete medium without antibiotics or antimycotics. Confluent clusters of cells are electrically coupled (Pritchett et al., 1988). Because responses in distant cells are not adequately voltage clamped and because of uncertainties about the extent of coupling (Verdoorn et al., 1990), cells were cultivated at a density that enables the recording of single cells (without visible connections to other cells).
Whole cell currents were measured with HEKA EPC-10 amplifiers using PatchMaster software or by using the high throughput QPatch platform (Sophion). Bath solution for all experiments contained (in mM): NaCl 137 mM, KCl 4 mM, CaCl2 1.8 mM, MgCl2 1 mM, HEPES 10 mM, D-Glucose 10 mM, pH (NaOH) 7.4. In some cases 0.005% cremophor was also added. Intracellular (pipette) solution contained: KCl 130 mM, MgCl2 1 mM, Mg-ATP 5 mM, HEPES 10 mM, EGTA 5 mM, pH 7.2. During experiments, cells and solutions were maintained at room temperature (19° C.-30° C.). For manual patch clamp recordings, cell culture dishes were placed on the dish holder of the microscope and continuously perfused (1 ml/min) with bath solution. After formation of a Gigaohm seal between the patch electrodes and the cell (pipette resistance range: 2.5 MΩ-6.0 MΩ; seal resistance range: >1 GΩ) the cell membrane across the pipette tip was ruptured to assure electrical access to the cell interior (whole-cell patch-configuration). For experiments using the QPatch system, cells were transferred as suspension to the QPatch system in the bath solution and automated whole cell recordings were performed.
Cells were voltage clamped at a holding potential of −80 mV. For the analysis of test articles, GABA receptors were stimulated by 2 μM GABA after sequential pre-incubation of increasing concentrations of the test article. Pre-incubation duration was 30 s and the duration of the GABA stimulus was 2 s. Test articles were dissolved in DMSO to form stock solutions (10 mM). Test articles were diluted to 0.01, 0.1, 1, and 10 μM in bath solution. All concentrations of test articles were tested on each cell. The relative percentage potentiation was defined as the peak amplitude in response to GABA EC20 in the presence of the test article divided by the peak amplitude in response to GABA EC20 alone, multiplied by 100.

| Compound | activity at 10 µM (α1β2γ2 GABAA receptor) [%] | Emax (α1β2γ2 GABAA receptor) [%] | EC50 (α1β2γ2 GABAA receptor) [nM] | activity at 10 µM (α4β3δ GABAA receptor) [%] | α1β2γ2 GABA Qpatch in Ltk (Efficacy at 10 μm) (α1β2γ2 GABAA receptor) | α4β3δ GABA Manual Patch in CHO (Efficacy at 10 μM) (α4β3δ GABAA receptor) |
| --- | --- | --- | --- | --- | --- | --- |
| C[C@@]1(O)CC[C@H]2[C@H](CC[C@@H]3[C@@H]2CC[C@]2(C)[C@@H](C(=O)Cn4nc5ccccc5n4)CC[C@@H]32)C1 [SA-2] | 100 to 500 | 0 to 500 | 500 to 1000 | > 500 | – | – |
| C[C@@]1(O)CC[C@H]2[C@H](CC[C@@H]3[C@@H]2CC[C@]2(C)[C@@H](C(=O)Cn4cc5ncccc5n4)CC[C@@H]32)C1 [SA-4] | – | 500 to 1000 | 1000 to 2000 | – | C (“C” indicates an efficacy value of >500%) | B (“B” indicates an efficacy value of >100-500%) |
| C[C@@]1(O)CC[C@H]2[C@H](CC[C@@H]3[C@@H]2CC[C@]2(C)[C@@H](C(=O)Cn4cc5ccccc5n4)CC[C@@H]32)C1 [SA-6] | – | 500 to 1000 | > 2000 | – | C (“C” indicates an efficacy value of >500%) | B (“B” indicates an efficacy value of >100-500%) |
| C[C@@]1(O)CC[C@H]2[C@H](CC[C@@H]3[C@@H]2CC[C@]2(C)[C@@H](C(=O)Cn4cc5c(n4)CCCC5)CC[C@@H]32)C1 [SA-7] | – | – | – | – | B (“B” indicates an efficacy value of >100-500%) | B (“B” indicates an efficacy value of >100-500%) |
| C[C@@]1(O)CC[C@H]2[C@H](CC[C@@H]3[C@@H]2CC[C@]2(C)[C@@H](C(=O)Cn4nc5ccncc5n4)CC[C@@H]32)C1 [SA-11] | > 500 | – | – | 100 to 500 | – | – |
| C[C@@]1(O)CC[C@H]2[C@H](CC[C@@H]3[C@@H]2CC[C@]2(C)[C@@H](C(=O)Cn4nc5cccnc5n4)CC[C@@H]32)C1 [SA-14] | > 500 | – | – | 100 to 500 | – | – |
| C[C@@]1(O)CC[C@H]2[C@H](CC[C@@H]3[C@@H]2CC[C@]2(C)[C@@H](C(=O)Cn4cc5cc(F)ccc5n4)CC[C@@H]32)C1 [SA-16] | > 500 | – | – | 100 to 500 | – | – |
| C[C@@]1(O)CC[C@H]2[C@H](CC[C@@H]3[C@@H]2CC[C@]2(C)[C@@H](C(=O)Cn4cc5cccnc5n4)CC[C@@H]32)C1 [SA-18] | – | 500 to 1000 | > 2000 | – | C (“C” indicates an efficacy value of >500%) | C (“C” indicates an efficacy value of >500%) |
| C[C@@]1(O)CC[C@H]2[C@H](CC[C@@H]3[C@@H]2CC[C@]2(C)[C@@H](C(=O)Cn4cc5ccncc5n4)CC[C@@H]32)C1 [SA-20] | – | – | – | – | C (“C” indicates an efficacy value of >500%) | C (“C” indicates an efficacy value of >500%) |
| C[C@@]1(O)CC[C@H]2[C@H](CC[C@@H]3[C@@H]2CC[C@]2(C)[C@@H](C(=O)Cn4cc5ccc(F)cc5n4)CC[C@@H]32)C1 [SA-22] | > 500 | – | – | 100 to 500 | – | – |
| Cc1cc2cn(CC(=O)[C@H]3CC[C@H]4[C@@H]5CC[C@@H]6C[C@](C)(O)CC[C@@H]6[C@H]5CC[C@]34C)nc2cn1 [SA-24] | 100 to 500 | – | – | 100 to 500 | – | – |
| C[C@@]1(O)CC[C@H]2[C@H](CC[C@@H]3[C@@H]2CC[C@]2(C)[C@@H](C(=O)Cn4cc5ncc(Cl)cc5n4)CC[C@@H]32)C1 [SA-26] | > 500 | – | – | 100 to 500 | – | – |
| C[C@@]1(O)CC[C@H]2[C@H](CC[C@@H]3[C@@H]2CC[C@]2(C)[C@@H](C(=O)Cn4cc5nccnc5n4)CC[C@@H]32)C1 [SA-28] | 100 to 500 | – | – | 100 to 500 | – | – |
| C[C@@]1(O)CC[C@H]2[C@H](CC[C@@H]3[C@@H]2CC[C@]2(C)[C@@H](C(=O)Cn4cc5cc(Cl)ncc5n4)CC[C@@H]32)C1 [SA-30] | > 500 | – | – | > 500 | – | – |
| C[C@@]1(O)CC[C@H]2[C@H](CC[C@@H]3[C@@H]2CC[C@]2(C)[C@@H](C(=O)Cn4cc5ncncc5n4)CC[C@@H]32)C1 [SA-32] | > 500 | – | – | > 500 | – | – |
| C[C@@]1(O)CC[C@H]2[C@H](CC[C@@H]3[C@@H]2CC[C@]2(C)[C@@H](C(=O)Cn4cc5cncnc5n4)CC[C@@H]32)C1 [SA-35] | 100 to 500 | – | – | > 500 | – | – |

| Compound | activity at 10 µM (α1β2γ2 GABAA receptor) [%] | Emax (α1β2γ2 GABAA receptor) [%] | EC50 (α1β2γ2 GABAA receptor) [nM] | activity at 10 µM (α4β3δ GABAA receptor) [%] | α1β2γ2 GABA Qpatch in Ltk (Efficacy at 10 μm) (α1β2γ2 GABAA receptor) | α4β3δ GABA Manual Patch in CHO (Efficacy at 10 μM) (α4β3δ GABAA receptor) |
| --- | --- | --- | --- | --- | --- | --- |
| C[C@@]1(O)CC[C@H]2[C@H](CC[C@@H]3[C@@H]2CC[C@]2(C)[C@@H](C(=O)Cn4nc5ccc(Cl)cc5n4)CC[C@@H]32)C1 [SA-41] | > 500 | – | – | 100 to 500 | – | – |
| Cc1ccc2nn(CC(=O)[C@H]3CC[C@H]4[C@@H]5CC[C@@H]6C[C@](C)(O)CC[C@@H]6[C@H]5CC[C@]34C)nc2c1 [SA-44] | 100 to 500 | – | – | 100 to 500 | – | – |
| COc1ccc2nn(CC(=O)[C@H]3CC[C@H]4[C@@H]5CC[C@@H]6C[C@](C)(O)CC[C@@H]6[C@H]5CC[C@]34C)nc2c1 [SA-49] | – | – | – | > 500 | – | – |
| C[C@@]1(O)CC[C@H]2[C@H](CC[C@@H]3[C@@H]2CC[C@]2(C)[C@@H](C(=O)Cn4nc5cc(Cl)cnc5n4)CC[C@@H]32)C1 [SA-57] | > 500 | – | – | 100 to 500 | – | – |
| C[C@@]1(O)CC[C@H]2[C@H](CC[C@@H]3[C@@H]2CC[C@]2(C)[C@@H](C(=O)Cn4nc5ccc(F)cc5n4)CC[C@@H]32)C1 [SA-63] | – | – | – | 100 to 500 | – | – |
| C[C@@]1(O)CC[C@H]2[C@H](CC[C@@H]3[C@@H]2CC[C@]2(C)[C@@H](C(=O)Cn4nc5cccc(F)c5n4)CC[C@@H]32)C1 [SA-66] | > 500 | – | – | > 500 | – | – |
| Cc1cccc2nn(CC(=O)[C@H]3CC[C@H]4[C@@H]5CC[C@@H]6C[C@](C)(O)CC[C@@H]6[C@H]5CC[C@]34C)nc12 [SA-69] | 100 to 500 | – | – | 100 to 500 | – | – |
| C[C@@]1(O)CC[C@H]2[C@H](CC[C@@H]3[C@@H]2CC[C@]2(C)[C@@H](C(=O)Cn4nc5cccc(Cl)c5n4)CC[C@@H]32)C1 [SA-78] | 100 to 500 | – | – | 100 to 500 | – | – |
| C[C@]12CC[C@H]3[C@@H](CC[C@@H]4C[C@@](O)(CF)CC[C@@H]43)[C@@H]1CC[C@@H]2C(=O)Cn1nc2ccccc2n1 [SA-80] | > 500 | – | – | > 500 | – | – |
| C[C@]12CC[C@H]3[C@@H](CC[C@@H]4C[C@@](O)(CF)CC[C@@H]43)[C@@H]1CC[C@@H]2C(=O)Cn1cc2ncccc2n1 [SA-83] | 100 to 500 | – | – | 100 to 500 | – | – |
| COC[C@@]1(O)CC[C@H]2[C@H](CC[C@@H]3[C@@H]2CC[C@]2(C)[C@@H](C(=O)Cn4nc5ccncc5n4)CC[C@@H]32)C1 [SA-125] | > 500 | – | – | 100 to 500 | – | – |
| C[C@@]1(O)CC[C@H]2[C@@H](CC[C@@H]3[C@@H]2CC[C@]2(C)[C@@H](C(=O)Cn4cc5ncccc5n4)CC[C@@H]32)C1 [SB-4] | – | – | – | – | C (“C” indicates an efficacy value of >500%) | C (“C” indicates an efficacy value of >500%) |
| C[C@@]1(O)CC[C@H]2[C@@H](CC[C@@H]3[C@@H]2CC[C@]2(C)[C@@H](C(=O)Cn4nc5ccncc5n4)CC[C@@H]32)C1 [SB-8] | > 500 | – | – | 100 to 500 | – | – |
| C[C@@]1(O)CC[C@H]2[C@@H](CC[C@@H]3[C@@H]2CC[C@]2(C)[C@@H](C(=O)Cn4cc5ccncc5n4)CC[C@@H]32)C1 [SB-9] | – | – | – | – | C (“C” indicates an efficacy value of >500%) | B (“B” indicates an efficacy value of >100-500%) |
| C[C@]12CC[C@H]3[C@@H](CC[C@H]4C[C@@](O)(CF)CC[C@@H]43)[C@@H]1CC[C@@H]2C(=O)Cn1nc2ccncc2n1 [SB-15] | 100 to 500 | – | – | 100 to 500 | – | – |
| COC[C@@]1(O)CC[C@H]2[C@@H](CC[C@@H]3[C@@H]2CC[C@]2(C)[C@@H](C(=O)Cn4cc5ccncc5n4)CC[C@@H]32)C1 [SB-45] | 100 to 500 | – | – | 100 to 500 | – | – |
